In patent publication US12589101B2, “Cyclodextrin protein drug conjugates” (Regeneron Pharmaceuticals, Inc., priority 2017, dated 2026):
Converted amounts (≈) assume the structure as drawn. Where two headings read alike, the source gives them in different places.

Assays:
[1] = Solubility of linker-payloads (LC-MS standard curve, saturated solution); assay type: physicochemical; conditions: water, thermodynamic from solid
Method: The following test assays the solubility of the linker-payloads with a cyclodextrin moiety and the linker-payloads without a cyclodextrin moiety.
The test compounds were dissolved in DMSO to build a standard curve using LC-MS method A or B. The test sample was dissolved in water and sonicated for 10 minutes, and then centrifuged. The upper clear solution was analyzed using the same method A or B and the solubility was calculated based on its peak area.
Detailed test procedures were as follows: • 1. […] 0.05 mg of compound was suspended in water (1 mL) and sonicated for 10 minutes. After centrifugation, the clear solution above was collected to provide the saturated sample solution. • 3. All the standard solutions A, B, C, D, E and sample solution were analyzed by LCMS (using the same method and same injection volume) to obtain the peak areas. • 4. Calculate the standard curve according to the data of A-D (X=concentration, Y=peak areas). • 5. Calculate to obtain the concentration of saturated sample solution according to the functions obtained above.

[2] = biological target: Cathepsin B (Homo sapiens, UniProt P07858); test: Cathepsin B cleavage rate of linker-payloads (Example 66); assay type: biochemical; conditions: Cathepsin B cleavage rate; for CapB (%): pH 5.0, 37° C.
Method: Step 1: Preparation of Cathepsin B buffer: 0.1 M NaOAc/0.01M DTT (pH5.0) Dissolve 8.3 g/L NaOAc, 1.54 g/L DTT in deionized water. Adjust pH to 5.0 with HCl/sodium hydroxide.
Step 2: Test Cleavage Rate
• 1. Prepare 25 μM of testing sample: To a 2-mL-tube was added 0.5 mg of testing sample, followed by the addition of 0.2 mL of DMSO. The solution was added dropwise into 0.8 mL of 0.1 M NaOAc/0.01 M DTT buffer. The obtained mixtures were sonicated for 5 minutes to obtain clear and colorless solutions. The pH value of the solution was around 5 according to pH test strip. • 2. Preheat assay buffer: 0.1 M NaOAc/0.01 M DTT (pH 5.0) • 3. Spiking solutions for test compounds: 25 μM Spiking solutions for test compounds: Add 2 μL of 5 mM stock solution into 398 μL of 0.1 M NaOAc/0.01 M DTT buffer (pH 5.0). • 4. Prepare 0.47 μg/μL Cathepsin B in 50 mM NaOAc/1 mM EDTA (pH 5.0). Put on ice. • 5. Without CA074 samples: Add 4 μL of 0.47 μg/μL Cathepsin B into 196 μL of 25 μM Spiking solutions (from step 2), incubate the tubes at 37° C. • 6. With CA074 samples: Add 4 μL of 0.47 μg/μL Cathepsin B with 4 μL of 10 mM Inhibitor (CA074) into 196 μL of 25 μM Spiking solutions (from step 2), incubate the tubes. • 7. After quenching, shake the plate and centrifuge them at 14000 rpm. • 8. Transfer 50 μL of the supernatant from each well into a 96-well sample plate containing 50 μL of ultra pure water (Millipore, ZMQS50F01) for LC/MS analysis. Step 3: Test reference compounds: • 9. Preheat assay buffer: 100 mM Na/K phosphate, pH 6.0, with 1.33 mM EDTA and 2 mM DTT. • 10. Prepare 0.024 μg/μL Cathepsin B: Add 1 μL of 0.47 μg/μL Cathepsin B stock into 19 μL of assay buffer (from step 11). • 11. Add 2 μL of 0.024 μg/μL Cathepsin B (from step 12) to a opaque 96-well plate. • 12. Add 96 μL of assay buffer to each sample. • 13. Add 2 μL of the 10 mM substrate Z-RR-MNA (200 μM final concentration). • 14. For negative control (With inhibitor), add 2 μL of 10 mM Inhibitor (CA074): Immediately read the samples in a kinetic mode at excitation of 340 nm/emission of 425 nm (Read the plate every 30 Second for 3 min). Step 4: Stability of Cathepsin B in incubation samples: • 15. Take 5 μL of incubation samples into 93 μL of assay buffer (from step 11), and then add 2 μL of 10 mM substrate (Z-RR-MNA). • 16. Incubate the samples at 37° C. for 2 min. • 17. Read the samples at excitation of 340 nm/emission of 425 nm.

| solubility at 10 min ([1]; Aq. Solubility (mg/mL)) | solubility at 10 min ([1]; Solubility) | SMILES | CapB (%) [2] | further results |
| --- | --- | --- | --- | --- |
| < 100 µg/mL | < 100 µg/mL | CC(C)[C@H](NC(=O)[C@@H](CCCCNC(=O)COC1CCCCCc2c1nnn2CC1OC2OC3C(CO)OC(OC4C(CO)OC(OC5C(CO)OC(OC6C(CO)OC(OC7C(CO)OC(OC1C(O)C2O)C(O)C7O)C(O)C6O)C(O)C5O)C(O)C4O)C(O)C3O)NC(=O)CCOCCOCCOCCOCCNC(=O)CCC(=O)N1Cc2ccccc2C#Cc2ccccc21)C(=O)N[C@@H](CCCNC(N)=O)C(=O)Nc1ccc(COC(=O)N[C@@H](CO)C(=O)Nc2ccc3c(c2)[C@@]2(C)CCC[C@](C)(C(=O)NC(=O)[C@@]4(C)CCC[C@]5(C)c6cc(O)ccc6CC[C@@H]45)[C@@H]2CC3)cc1 (stereo partly drawn) [Ex56, DIBAC-suc-PEG4-D-Lys(COT-CD)-vcPAB-1g] |  |  |
|  |  | CCCC1O[C@@H]2C[C@H]3[C@@H]4C[C@H](F)C5=CC(=O)C=C[C@]5(C)[C@@]4(F)[C@@H](O)C[C@]3(C)[C@]2(C(=O)COc2ccc(NC(=O)OCc3ccc(NC(=O)[C@H](CCCNC(N)=O)NC(=O)[C@@H](NC(=O)[C@@H](CCCCNC(=O)COC4CCCCCc5c4nnn5CC4OC5OC6C(CO)OC(OC7C(CO)OC(OC8C(CO)OC(OC9C(CO)OC(OC%10C(CO)OC(OC4C(O)C5O)C(O)C%10O)C(O)C9O)C(O)C8O)C(O)C7O)C(O)C6O)NC(=O)CCOCCOCCOCCOCCNC(=O)CCC(=O)N4Cc5ccccc5C#Cc5ccccc54)C(C)C)cc3)cc2)O1 (stereo partly drawn) [Ex62, DIBAC-suc-PEG4-dLys(COT-CD)-vcPAB-1i] | % (% ≤50 CapB (%)) | capB ([2]; Table 8A): 12.8% |
|  |  | CCCC1O[C@@H]2C[C@H]3[C@@H]4C[C@H](F)C5=CC(=O)C=C[C@]5(C)[C@@]4(F)[C@@H](O)C[C@]3(C)[C@]2(C(=O)CNC(=O)OCc2ccc(NC(=O)[C@H](CCCNC(N)=O)NC(=O)[C@@H](NC(=O)[C@@H](CCCCNC(=O)COC3CCCCCc4c3nnn4CC3OC4OC5C(CO)OC(OC6C(CO)OC(OC7C(CO)OC(OC8C(CO)OC(OC9C(CO)OC(OC3C(O)C4O)C(O)C9O)C(O)C8O)C(O)C7O)C(O)C6O)C(O)C5O)NC(=O)CCOCCOCCOCCOCCNC(=O)OC[C@@H]3[C@@H]4CCC#CCC[C@@H]43)C(C)C)cc2)O1 (stereo partly drawn) [Ex60, BCN-PEG4-dLys(COT-CD)-vcPAB-1h] | % (% ≤50 CapB (%)) |  |
| 300 µg/mL (≈ 102 µM) | 290 µg/mL (≈ 98.7 µM) | CC(C)[C@H](NC(=O)[C@@H](CCCCNC(=O)CCOCCOCCOCCOCCNC(=O)COC1CCCCCc2nnn(CC3OC4OC5C(CO)OC(OC6C(CO)OC(OC7C(CO)OC(OC8C(CO)OC(OC9C(CO)OC(OC3C(O)C4O)C(O)C9O)C(O)C8O)C(O)C7O)C(O)C6O)C(O)C5O)c21)NC(=O)CCOCCOCCOCCOCCNC(=O)OCC1C2CCC#CCCC21)C(=O)N[C@@H](CCCNC(N)=O)C(=O)Nc1ccc(COC(=O)NCCOc2ccc3c(c2)[C@@]2(C)CCC[C@](C)(C(=O)NC(=O)[C@@]4(C)CCC[C@]5(C)c6cc(O)ccc6CC[C@@H]45)[C@@H]2CC3)cc1 (stereo partly drawn) [Ex52, BCN-PEG4-D-Lys(PEG4-COT-CD)-vcPAB-1e] |  |  |
| 300 µg/mL (≈ 124 µM) |  | CC(C)[C@H](NC(=O)[C@@H](CCCCNC(=O)COC1CCCCCc2c1nnn2CC1OC2OC3C(CO)OC(OC4C(CO)OC(OC5C(CO)OC(OC6C(CO)OC(OC7C(CO)OC(OC1C(O)C2O)C(O)C7O)C(O)C6O)C(O)C5O)C(O)C4O)C(O)C3O)NC(=O)CCOCCOCCOCCOCCNC(=O)OCC1C2CCC#CCCC21)C(=O)N[C@@H](C)C(=O)Nc1ccc2c(c1)[C@@]1(C)CCC[C@](C)(C(=O)NC(=O)[C@@]3(C)CCC[C@]4(C)c5cc(O)ccc5CC[C@@H]34)[C@@H]1CC2 (stereo partly drawn) [Ex54, BCN-PEG4-D-Lys(COT-CD)-Val-Ala-1d] |  |  |
|  |  | CCCC1O[C@@H]2C[C@H]3[C@@H]4C[C@H](F)C5=CC(=O)C=C[C@]5(C)[C@@]4(F)[C@@H](O)C[C@]3(C)[C@]2(C(=O)COc2ccc(NC(=O)[C@H](C)NC(=O)[C@@H](NC(=O)[C@@H](CCCCNC(=O)COC3CCCCCc4c3nnn4CC3OC4OC5C(CO)OC(OC6C(CO)OC(OC7C(CO)OC(OC8C(CO)OC(OC9C(CO)OC(OC3C(O)C4O)C(O)C9O)C(O)C8O)C(O)C7O)C(O)C6O)C(O)C5O)NC(=O)CCOCCOCCOCCOCCNC(=O)CCC(=O)N3Cc4ccccc4C#Cc4ccccc43)C(C)C)cc2)O1 (stereo partly drawn) [Ex63, DIBAC-suc-PEG4-dLys(COT-CD)-Val-Ala-1i] | % (% ≤50 CapB (%)) |  |
|  |  | CC[C@H](C)[C@@H]([C@@H](CC(=O)N1CCC[C@H]1[C@H](OC)[C@@H](C)C(=O)N[C@H](C)[C@@H](O)c1ccccc1)OC)N(C)C(=O)[C@@H](NC(=O)[C@H](C(C)C)N(C)C(=O)OCc1ccc(NC(=O)[C@H](CCCNC(N)=O)NC(=O)[C@@H](NC(=O)[C@@H](CCCCNC(=O)CCC(=O)N2Cc3ccccc3C#Cc3ccccc32)NC(=O)CCCCCN2C(=O)CC(N3CCN(CC4OC5OC6C(CO)OC(OC7C(CO)OC(OC8C(CO)OC(OC9C(CO)OC(OC%10C(CO)OC(OC4C(O)C5O)C(O)C%10O)C(O)C9O)C(O)C8O)C(O)C7O)C(O)C6O)CC3)C2=O)C(C)C)cc1)C(C)C (stereo partly drawn) [Ex38] |  | solubility at 10 min ([1]; aqueous, read-out: Aq. Solubility): 500 µg/mL (≈ 180 µM); solubility at 10 min ([1]; read-out: Solubility): 250 µg/mL (≈ 90.2 µM) |
|  |  | CC[C@H](C)[C@@H]([C@@H](CC(=O)N1CCC[C@H]1[C@H](OC)[C@@H](C)C(=O)N[C@H](C)[C@@H](O)c1ccccc1)OC)N(C)C(=O)[C@@H](NC(=O)[C@H](C(C)C)N(C)C(=O)OCc1ccc(NC(=O)[C@H](CCCNC(N)=O)NC(=O)[C@@H](NC(=O)[C@@H](CCCCNC(=O)CCOCCOCCOCCOCCNC(=O)COC2CCCCCc3c2nnn3CC2OC3OC4C(CO)OC(OC5C(CO)OC(OC6C(CO)OC(OC7C(CO)OC(OC8C(CO)OC(OC2C(O)C3O)C(O)C8O)C(O)C7O)C(O)C6O)C(O)C5O)C(O)C4O)NC(=O)CCOCCOCCOCCOCCNC(=O)CCC(=O)N2Cc3ccccc3C#Cc3ccccc32)C(C)C)cc1)C(C)C (stereo partly drawn) [Ex43] | % (50< % ≤60 CapB (%)) |  |
| 180 µg/mL (≈ 67.7 µM) | 330 µg/mL (≈ 124 µM) | CC(C)[C@H](NC(=O)[C@@H](CCCCNC(=O)CCOCCOCCOCCOCCNC(=O)COC1CCCCCc2nnn(CC3OC4OC5C(CO)OC(OC6C(CO)OC(OC7C(CO)OC(OC8C(CO)OC(OC9C(CO)OC(OC3C(O)C4O)C(O)C9O)C(O)C8O)C(O)C7O)C(O)C6O)C(O)C5O)c21)NC(=O)CCOCCOCCOCCOCCNC(=O)OCC1C2CCC#CCCC21)C(=O)N[C@@H](C)C(=O)Nc1ccc2c(c1)[C@@]1(C)CCC[C@](C)(C(=O)NC(=O)[C@@]3(C)CCC[C@]4(C)c5cc(O)ccc5CC[C@@H]34)[C@@H]1CC2 (stereo partly drawn) [Ex51, BCN-PEG4-D-Lys(PEG4-COT-CD)-Val-Ala-1d] |  |  |
|  |  | CC[C@H](C)[C@@H]([C@@H](CC(=O)N1CCC[C@H]1[C@H](OC)[C@@H](C)C(=O)N[C@H](C)[C@@H](O)c1ccccc1)OC)N(C)C(=O)[C@@H](NC(=O)[C@H](C(C)C)N(C)C(=O)OCc1ccc(NC(=O)[C@H](CCCNC(N)=O)NC(=O)[C@@H](NC(=O)[C@@H](CCCCNC(=O)CCOCCOCCOCCOCCNC(=O)COC2CCCCCc3c2nnn3CC2OC3OC4C(CO)OC(OC5C(CO)OC(OC6C(CO)OC(OC7C(CO)OC(OC8C(CO)OC(OC2C(O)C3O)C(O)C8O)C(O)C7O)C(O)C6O)C(O)C5O)C(O)C4O)NC(=O)CCOCCOCCOCCOCCNC(=O)OC[C@@H]2[C@@H]3CCC#CCC[C@@H]32)C(C)C)cc1)C(C)C (stereo partly drawn) [Ex44] | % (50< % ≤60 CapB (%)) |  |
